Data published in patent publication US5856318A (priority 1997, dated 1999).

Experiments:
[1] = tested on: NMDA receptor; settings: C. Carter et al, J. Pharm Exp. Ther. 1988; cited from earlier work
[2] = target: T1, sigma receptor (Cavia porcellus, UniProt Q60492); type: binding, guinea pig; settings: read-out: Ki([3H](+)-Pent)
T1 construct: Crude P2 membrane fractions were prepared from frozen; tissue Pel-Freeze, Rogers, Ark; (frozen guinea pig brains); host or cells: guinea pig brain minus cerebella, crude synaptosomal (P2) membranes
T1 sequence (Q60492 whole entry): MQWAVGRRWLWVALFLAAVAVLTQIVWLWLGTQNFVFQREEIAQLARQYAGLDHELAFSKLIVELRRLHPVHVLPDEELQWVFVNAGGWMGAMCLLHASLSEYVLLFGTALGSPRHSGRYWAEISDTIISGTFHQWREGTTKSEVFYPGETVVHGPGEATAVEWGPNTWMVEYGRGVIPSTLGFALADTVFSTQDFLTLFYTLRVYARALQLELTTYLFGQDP

Row | Ki [2] [nM] | Compound | NMDA receptor antagonism [1]
1 | – | 1-(4-chlorophenyl)-2-[1-(4-fluorophenyl)-piperidinyl]ethanol | non-competitive NMDA receptor antagonists
2 | 3.56 ± 1.56 | Clc1ccc(CCN2CCCC(N3CCCC3)C2)cc1Cl (stereo not drawn) [Compound No. 1, 3-(1-Pyrrolidinyl)-1-[2-(3,4-dichlorophenyl)ethyl]piperidine] | –
3 | – | CC(C(O)c1ccc(O)cc1)N1CCC(Cc2ccccc2)CC1 (stereo not drawn) [ifenprodil] | non-competitive NMDA receptor antagonists
